According to ChEMBL document CHEMBL3608297, “Structure-based de novo design and synthesis of aminothiazole-based p38 MAP kinase inhibitors” (Bioorg Med Chem Lett, 2015):

Target: MAP kinase p38 (Homo sapiens, UniProt O15264+Q15759+Q16539+P53778)
Experiment: Inhibition of p38 MAP kinase (unknown origin) by biochemical assay
Assay type: protein assay

IC50 | Compound
116 µM | Cc1ccccc1C(=O)c1cnc(Nc2ccccc2)s1
0.61 µM | O=C(c1cnc(Nc2ccccc2)s1)c1ccccc1Cl
0.33 µM | O=C(c1cnc(Nc2ccc(F)cc2)s1)c1ccccc1Cl
1.23 µM | COc1cccc(C(=O)c2cnc(Nc3ccccc3)s2)c1
0.91 µM | O=C(c1cnc(Nc2ccc(Cl)cc2)s1)c1ccccc1Cl
1.07 µM | O=C(c1cnc(Nc2ccccc2)s1)c1ccccc1Br
1.98 µM | O=C(Nc1cccc(Nc2ncc(C(=O)c3ccccc3Cl)s2)c1F)c1ccccc1
1.2 µM | O=C(Nc1cccc(Nc2ncc(C(=O)c3ccccc3Cl)s2)c1)c1ccccc1
2.04 µM | O=C(c1cnc(Nc2ccc(O)cc2)s1)c1ccccc1Cl
1.07 µM | O=C(c1ccccc1)c1cnc(Nc2ccccc2)s1
1.44 µM | COc1ccc(Nc2ncc(C(=O)c3ccccc3Cl)s2)cc1
1.31 µM | O=C(c1cccc(O)c1)c1cnc(Nc2ccccc2)s1
0.94 µM | O=C(c1cnc(Nc2ccc(Br)cc2)s1)c1ccccc1Cl
0.25 µM | O=C(c1cnc(Nc2ccc(O)cc2F)s1)c1ccccc1Cl
1.62 µM | O=C(c1cnc(Nc2cccc([N+](=O)[O-])c2)s1)c1ccccc1Cl
> 200 µM | Nc1ccc(Nc2ncc(C(=O)c3ccccc3Cl)s2)cc1
0.79 µM | O=C(c1cnc(Nc2ccccc2F)s1)c1ccccc1Cl
12.7 µM | O=C(c1cnc(Nc2cccc([N+](=O)[O-])c2F)s1)c1ccccc1Cl
0.18 µM | O=C(c1cnc(Nc2ccc(F)cc2F)s1)c1ccccc1Cl
0.45 µM | Nc1cccc(Nc2ncc(C(=O)c3ccccc3Cl)s2)c1F
16.2 µM | Nc1cccc(Nc2ncc(C(=O)c3ccccc3Cl)s2)c1
